Literature values, collected in US20100120775A1, “Farnesoid X Receptor Agonists” (SMITHKLINE BEECHAM CORPORATION, priority 2006, published 2010).
Entries after “also recorded” stand apart in the source; their conditions may differ.

Assays:
[1] = test system: rodent models of hepatic fibrosis; settings: multiple rodent models; cited from earlier work
[2] = test system: hepatic stellate cells (HSC); settings: cultured HSCs; cited from earlier work
[3] = test system: mice on a lithogenic diet; settings: cited from earlier work
ob/ob mice = settings: male ob/ob mice; 30 mg/kg intraperitoneally; cited from earlier work
db/db mice = settings: cited from earlier work
bile duct-ligated mouse = bile duct-ligated mouse model; cited from earlier work
mice on high-fat diet = settings: cited from earlier work
[4] = db/db mice, oral 30 mg/kg, bid, serum
[5] = 100 mg/kg twice a day orally, 100 mg/kg

## CC[C@H]1[C@@H](O)[C@@H]2[C@H](CC[C@]3(C)[C@@H]([C@H](C)CCC(=O)O)CC[C@@H]23)[C@@]2(C)CC[C@@H](O)C[C@@H]12 [Example 6EtCDCA, 6-ethyl-chenodeoxycholic acid]
[1]
  hepatic fibrosis: prevent development and promote resolution
[2]
  expression of α1(I)collagen: decreased
  expression of α-smooth muscle actin: decreased

## CC(C)c1onc(-c2c(Cl)cccc2Cl)c1COc1ccc(/C=C/c2cccc(C(=O)O)c2)c(Cl)c1 [GW4064]
[3]
  formation of cholesterol crystals in the bile: prevented
ob/ob mice
  body weight: did not alter
  fasting blood glucose: no effect
  food intake: did not alter
  glucose tolerance: improved
  insulin concentration: decreased
  insulin sensitivity: enhanced
db/db mice; db/db mice
  glycogen storage in the liver: enhanced
  insulin signalling in the liver: enhanced
db/db mice; db/db mice, oral 30 mg/kg, bid
  blood glucose: decreased
  serum β-hydroxybutyrate: decreased
db/db mice; [4]
  NEFA: decreased
  total cholesterol: decreased
  triglyceride: decreased
db/db mice; diabetic db/db mice
  hyperglycemia: significantly improved
  hyperlipidemia: significantly improved
Bile duct-ligated mouse
  bacterial overgrowth: decreased
  mucosal barrier: improved
  translocation of bacteria to mesenteric lymph nodes: decreased
Mice on high-fat diet; [5]
  body weight / high-fat diet induced body weight gain: decrease; also recorded: reduced
  serum glucose: decreased
  serum insulin: decreased
  serum triglyceride: decreased
Mice on high-fat diet; 100 mg/kg twice a day orally, GTT, 100 mg/kg
  glucose tolerance: corrected; also recorded: improve
Mice on high-fat diet; 100 mg/kg twice a day orally
  liver triglyceride content: reduced
Mice on high-fat diet
  body fat mass: decrease
Mice on high-fat diet; serum
  total cholesterol: decrease
